Results reported in patent publication US7074789B2, “Kinase inhibitors” (Amgen Inc., priority 1999, dated 2006).

Columns and labels:
Type in all cases: biochemical
[1] = molecular target: T1, PDGFRB (Homo sapiens, UniProt P09619); test: Kinase inhibition assay (33P transfer), PDGFRB; details: read-out: PDGFRB-1
T1 construct: Kinases are expressed as either kinase domains or full length constructs; made in house

[2] = molecular target: T2, Lck (Homo sapiens, UniProt P06239); test: Kinase inhibition assay (33P transfer), Lck; details: read-out: Lck-1
T2 construct: Kinases are expressed as either kinase domains or full length constructs; made in house
Summary of the method: (§1)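 Filterless plate radiometric format: immobilized poly(Glu,Tyr) 4:1 or poly(Arg,Ser) 3:1, 33P-labelled ATP, tagged recombinant kinase (some with regulatory partners). Incorporated label counted after phosphoric acid wash.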

[3] = molecular target: T3, EGFR (Homo sapiens, UniProt P00533); test: Kinase inhibition assay (33P transfer), EGFR; details: Table 2, kinase inhibition class; read-out: EGFR-1
T3 construct: Kinases are expressed as either kinase domains or full length constructs; made in house
Summary of the method: (§2)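 GST/His-fusion kinases, E. coli or High Five expressed, affinity purified; 33P-ATP, plate-coated poly(Glu,Tyr) 4:1 or poly(Arg,Ser) 3:1; 0.5% H3PO4 wash, scintillant, LSC.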

[4] = molecular target: T4, c-Met (Homo sapiens, UniProt P08581); test: Kinase inhibition assay (33P transfer), c-Met; details: Table 2, kinase inhibition class; read-out: Met-1
T4 construct: Kinases are expressed as either kinase domains or full length constructs; made in house
Summary of the method: as §2

[5] = molecular target: T5, Kdr (Homo sapiens, UniProt P35968); test: Kinase inhibition assay (33P transfer), Kdr; details: read-out: KDR-1
T5 construct: Kinases are expressed as either kinase domains or full length constructs; made in house
Summary of the method: as §1

[6] = molecular target: T6, Zap-70 (Homo sapiens, UniProt P43403); test: Kinase inhibition assay (33P transfer), Zap-70; details: read-out: Zap-1
T6 construct: Kinases are expressed as either kinase domains or full length constructs; made in house
T6 sequence (P43403 1-619): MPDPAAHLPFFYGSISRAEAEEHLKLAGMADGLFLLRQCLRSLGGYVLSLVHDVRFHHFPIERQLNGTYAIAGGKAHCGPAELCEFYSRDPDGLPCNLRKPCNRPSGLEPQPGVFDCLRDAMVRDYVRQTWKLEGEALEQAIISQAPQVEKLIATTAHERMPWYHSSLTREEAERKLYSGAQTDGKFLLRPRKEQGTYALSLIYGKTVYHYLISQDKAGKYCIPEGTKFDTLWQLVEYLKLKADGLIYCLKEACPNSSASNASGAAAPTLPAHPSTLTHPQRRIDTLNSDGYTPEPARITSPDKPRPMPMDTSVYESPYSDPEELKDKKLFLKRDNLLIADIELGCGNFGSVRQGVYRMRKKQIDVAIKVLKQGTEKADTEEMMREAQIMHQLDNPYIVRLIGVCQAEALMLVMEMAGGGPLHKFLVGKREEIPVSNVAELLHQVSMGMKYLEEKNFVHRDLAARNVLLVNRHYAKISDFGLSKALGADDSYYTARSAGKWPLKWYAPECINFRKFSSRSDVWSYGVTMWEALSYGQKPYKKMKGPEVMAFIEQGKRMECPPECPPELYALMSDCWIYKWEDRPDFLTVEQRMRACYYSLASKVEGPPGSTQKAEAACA
Summary of the method: as §1

[7] = molecular target: T7, Itk (Homo sapiens, UniProt Q08881); test: Kinase inhibition assay (33P transfer), Itk; details: read-out: Itk-1
T7 construct: Kinases are expressed as either kinase domains or full length constructs; made in house
T7 sequence (Q08881 1-620): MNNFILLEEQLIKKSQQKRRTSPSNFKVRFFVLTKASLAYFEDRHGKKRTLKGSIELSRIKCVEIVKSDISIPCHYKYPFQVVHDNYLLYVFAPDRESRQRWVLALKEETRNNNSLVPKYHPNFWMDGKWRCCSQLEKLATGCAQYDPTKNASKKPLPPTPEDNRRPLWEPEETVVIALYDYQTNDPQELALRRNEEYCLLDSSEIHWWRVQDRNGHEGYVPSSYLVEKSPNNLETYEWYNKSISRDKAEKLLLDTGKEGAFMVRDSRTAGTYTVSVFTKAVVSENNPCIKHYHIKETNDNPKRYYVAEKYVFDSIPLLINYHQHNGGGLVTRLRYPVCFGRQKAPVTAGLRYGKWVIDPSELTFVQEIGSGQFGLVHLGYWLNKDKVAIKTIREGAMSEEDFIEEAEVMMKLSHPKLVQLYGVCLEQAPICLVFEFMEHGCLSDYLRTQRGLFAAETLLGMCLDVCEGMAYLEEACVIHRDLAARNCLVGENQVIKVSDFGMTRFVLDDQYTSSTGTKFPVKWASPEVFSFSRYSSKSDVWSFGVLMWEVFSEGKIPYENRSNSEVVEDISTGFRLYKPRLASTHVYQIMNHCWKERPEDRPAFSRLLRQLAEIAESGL
Summary of the method: as §2

[8] = molecular target: T8, IGFR-1 (Homo sapiens, UniProt P08069); test: Kinase inhibition assay, IGFR-1 (Table 2); details: Table 2, kinase inhibition class
T8 construct: Kinases are expressed as either kinase domains or full length constructs; made in house

[9] = molecular target: T9, ErbB2 (Homo sapiens, UniProt P04626); test: Kinase inhibition assay (33P transfer), ErbB2; details: read-out: ErbB2-2
T9 construct: Kinases are expressed as either kinase domains or full length constructs; made in house
From the text: The inhibitor compounds described herein are screened in the following manner. Kinases suitable for use in the following protocol to determine kinase activity of the compounds described herein include, -but are not limited to: Lck, Lyn, Src, Fyn, Syk, Zap-70, Itk, Tec, Btk, EGFR, ErbB2, Kdr, Flt-1, Flt-3, Tek, c-Met, InsR, and AKT.
Kinases are expressed as either kinase domains or full length constructs fused to glutathione S-transferase (GST) or polyHistidine tagged fusion proteins in either E. colior Baculovirus-High Five expression systems. They are purified to near homogeneity by affinity chromatography essentially as previously described (Lehr et al., 1996; Gish et al., 1995). In some instances, kinases are co-expressed or mixed with purified or partially purified regulatory polypeptides prior to measurement of activity.
Kinase activity and inhibition are measured essentially by established protocols (Braunwalder et al., 1996). Briefly, The transfer of ^33PO4 from ATP to the synthetic substrates poly(Glu, Tyr) 4:1 or poly(Arg, Ser) 3:1 attached to the bioactive surface of microtiter plates serves as the basis to evaluate enzyme activity. After an incubation period, the amount of phosphate transferred is measured by first washing the plate with 0.5% phosphoric acid, adding liquid scintillant, and then counting in a liquid scintillation detector. The IC50 is determined by the concentration of compound that causes a 50% reduction in the amount of […] incorporated onto the substrate bound to the plate.

[10] = molecular target: T10, AKT (Homo sapiens, UniProt Q9Y243); test: Kinase inhibition assay (33P transfer), AKT; details: Table 2, kinase inhibition class; read-out: AKT3-1
T10 construct: Kinases are expressed as either kinase domains or full length constructs; made in house
Summary of the method: as §1

T10 sequence (Q9Y243 whole entry, the tested form may be a part): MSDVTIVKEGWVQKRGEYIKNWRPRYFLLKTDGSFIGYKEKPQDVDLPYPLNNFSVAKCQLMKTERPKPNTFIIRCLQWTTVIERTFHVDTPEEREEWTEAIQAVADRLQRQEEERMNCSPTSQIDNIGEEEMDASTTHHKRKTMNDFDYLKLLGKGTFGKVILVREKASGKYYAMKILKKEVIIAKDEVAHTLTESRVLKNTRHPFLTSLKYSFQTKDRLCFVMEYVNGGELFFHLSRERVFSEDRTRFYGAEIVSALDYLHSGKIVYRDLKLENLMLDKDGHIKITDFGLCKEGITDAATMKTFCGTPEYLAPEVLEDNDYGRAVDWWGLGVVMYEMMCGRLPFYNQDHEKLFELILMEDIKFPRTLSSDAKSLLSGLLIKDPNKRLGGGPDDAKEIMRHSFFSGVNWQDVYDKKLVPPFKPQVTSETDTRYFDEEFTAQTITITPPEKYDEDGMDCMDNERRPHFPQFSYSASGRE
T9 sequence (P04626 23-1255, species assumed): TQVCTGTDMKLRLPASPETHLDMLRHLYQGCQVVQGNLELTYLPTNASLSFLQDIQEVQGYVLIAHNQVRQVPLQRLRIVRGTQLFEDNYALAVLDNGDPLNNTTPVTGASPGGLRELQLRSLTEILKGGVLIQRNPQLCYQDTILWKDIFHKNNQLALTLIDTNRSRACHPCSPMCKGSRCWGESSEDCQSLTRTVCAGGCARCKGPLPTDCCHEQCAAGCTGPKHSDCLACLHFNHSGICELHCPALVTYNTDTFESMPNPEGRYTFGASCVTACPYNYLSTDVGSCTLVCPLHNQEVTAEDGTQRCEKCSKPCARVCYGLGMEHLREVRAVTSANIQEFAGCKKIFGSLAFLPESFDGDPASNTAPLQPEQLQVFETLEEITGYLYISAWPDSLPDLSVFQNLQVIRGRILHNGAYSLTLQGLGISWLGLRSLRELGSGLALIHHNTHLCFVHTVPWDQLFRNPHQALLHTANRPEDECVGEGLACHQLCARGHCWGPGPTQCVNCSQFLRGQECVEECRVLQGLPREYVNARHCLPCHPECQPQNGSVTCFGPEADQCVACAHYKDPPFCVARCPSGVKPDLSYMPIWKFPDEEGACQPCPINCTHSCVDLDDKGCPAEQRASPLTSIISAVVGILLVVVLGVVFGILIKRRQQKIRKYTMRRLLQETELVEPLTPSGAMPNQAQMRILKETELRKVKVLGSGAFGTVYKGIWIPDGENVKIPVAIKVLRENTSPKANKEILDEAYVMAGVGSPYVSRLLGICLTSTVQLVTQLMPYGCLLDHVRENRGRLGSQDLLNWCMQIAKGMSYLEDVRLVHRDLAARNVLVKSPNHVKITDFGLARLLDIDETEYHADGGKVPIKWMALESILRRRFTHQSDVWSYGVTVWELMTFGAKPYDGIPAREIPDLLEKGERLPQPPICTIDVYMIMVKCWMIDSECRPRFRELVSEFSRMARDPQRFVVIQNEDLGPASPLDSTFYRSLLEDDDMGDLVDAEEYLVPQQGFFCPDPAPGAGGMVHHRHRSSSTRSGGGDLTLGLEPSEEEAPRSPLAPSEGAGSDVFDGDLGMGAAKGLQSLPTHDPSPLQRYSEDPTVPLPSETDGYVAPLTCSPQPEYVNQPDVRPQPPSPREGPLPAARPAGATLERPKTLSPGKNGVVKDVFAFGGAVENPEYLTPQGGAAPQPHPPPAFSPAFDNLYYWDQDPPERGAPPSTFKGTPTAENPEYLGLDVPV
T5 sequence (P35968 20-1356, species assumed): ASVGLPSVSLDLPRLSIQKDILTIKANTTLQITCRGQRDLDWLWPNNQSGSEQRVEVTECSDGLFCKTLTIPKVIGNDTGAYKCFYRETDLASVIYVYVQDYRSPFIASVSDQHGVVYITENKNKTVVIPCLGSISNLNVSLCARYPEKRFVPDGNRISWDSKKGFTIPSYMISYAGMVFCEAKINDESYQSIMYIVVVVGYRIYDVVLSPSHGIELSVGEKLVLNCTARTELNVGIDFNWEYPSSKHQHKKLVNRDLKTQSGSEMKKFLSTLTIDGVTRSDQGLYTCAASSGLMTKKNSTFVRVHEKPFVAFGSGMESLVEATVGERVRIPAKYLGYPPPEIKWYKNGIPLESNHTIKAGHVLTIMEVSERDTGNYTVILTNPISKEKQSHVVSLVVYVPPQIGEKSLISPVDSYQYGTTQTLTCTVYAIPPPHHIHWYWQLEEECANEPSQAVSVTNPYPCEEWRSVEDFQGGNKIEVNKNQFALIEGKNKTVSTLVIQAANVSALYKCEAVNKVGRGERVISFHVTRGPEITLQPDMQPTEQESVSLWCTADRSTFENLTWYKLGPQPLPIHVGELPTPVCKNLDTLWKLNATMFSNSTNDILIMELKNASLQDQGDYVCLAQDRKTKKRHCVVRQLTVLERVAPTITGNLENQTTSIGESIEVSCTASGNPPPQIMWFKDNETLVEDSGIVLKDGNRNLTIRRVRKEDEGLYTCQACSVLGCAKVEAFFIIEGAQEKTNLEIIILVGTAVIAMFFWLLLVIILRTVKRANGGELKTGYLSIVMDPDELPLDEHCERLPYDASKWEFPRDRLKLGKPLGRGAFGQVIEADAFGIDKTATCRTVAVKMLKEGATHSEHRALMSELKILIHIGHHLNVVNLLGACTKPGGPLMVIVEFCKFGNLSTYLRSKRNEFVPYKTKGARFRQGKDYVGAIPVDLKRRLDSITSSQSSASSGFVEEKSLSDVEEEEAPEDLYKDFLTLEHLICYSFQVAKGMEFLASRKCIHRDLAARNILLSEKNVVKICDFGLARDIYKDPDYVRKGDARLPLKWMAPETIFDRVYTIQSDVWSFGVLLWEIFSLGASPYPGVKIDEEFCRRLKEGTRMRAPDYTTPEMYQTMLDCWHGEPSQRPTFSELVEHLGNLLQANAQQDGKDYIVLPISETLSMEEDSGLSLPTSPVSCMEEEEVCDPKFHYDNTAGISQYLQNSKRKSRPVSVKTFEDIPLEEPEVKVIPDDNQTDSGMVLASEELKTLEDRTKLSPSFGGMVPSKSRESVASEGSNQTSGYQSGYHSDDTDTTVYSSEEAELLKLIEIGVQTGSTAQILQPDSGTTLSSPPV
T1 sequence (P09619 33-1106, species assumed): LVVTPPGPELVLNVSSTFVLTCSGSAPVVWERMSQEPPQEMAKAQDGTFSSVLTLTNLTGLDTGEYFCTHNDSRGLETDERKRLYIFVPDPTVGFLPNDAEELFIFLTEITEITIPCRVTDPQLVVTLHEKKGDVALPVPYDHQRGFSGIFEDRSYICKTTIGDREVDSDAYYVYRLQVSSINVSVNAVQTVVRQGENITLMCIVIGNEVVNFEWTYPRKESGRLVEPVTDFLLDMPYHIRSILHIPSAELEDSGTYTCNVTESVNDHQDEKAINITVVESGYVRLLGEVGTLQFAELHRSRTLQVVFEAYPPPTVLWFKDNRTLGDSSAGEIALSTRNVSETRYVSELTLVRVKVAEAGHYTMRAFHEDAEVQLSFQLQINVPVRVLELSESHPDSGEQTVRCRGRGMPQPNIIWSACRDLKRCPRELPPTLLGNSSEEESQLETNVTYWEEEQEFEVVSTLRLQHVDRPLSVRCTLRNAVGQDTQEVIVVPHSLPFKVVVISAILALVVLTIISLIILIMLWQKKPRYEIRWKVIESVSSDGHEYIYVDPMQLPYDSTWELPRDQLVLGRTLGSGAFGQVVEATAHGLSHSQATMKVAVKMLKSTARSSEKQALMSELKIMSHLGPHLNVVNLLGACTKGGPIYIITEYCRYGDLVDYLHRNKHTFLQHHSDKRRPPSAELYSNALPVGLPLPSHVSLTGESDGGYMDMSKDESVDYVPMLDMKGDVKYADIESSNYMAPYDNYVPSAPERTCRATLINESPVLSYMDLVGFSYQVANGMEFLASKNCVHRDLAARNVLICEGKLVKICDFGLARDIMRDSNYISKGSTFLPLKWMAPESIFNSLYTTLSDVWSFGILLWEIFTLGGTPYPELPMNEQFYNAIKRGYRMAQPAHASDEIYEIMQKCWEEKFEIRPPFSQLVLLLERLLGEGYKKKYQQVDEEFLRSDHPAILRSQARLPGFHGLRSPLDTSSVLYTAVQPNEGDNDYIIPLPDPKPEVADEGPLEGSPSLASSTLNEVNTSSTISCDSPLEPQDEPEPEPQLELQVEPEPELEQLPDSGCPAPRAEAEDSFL
T2 sequence (P06239 whole entry, species assumed, the tested form may be a part): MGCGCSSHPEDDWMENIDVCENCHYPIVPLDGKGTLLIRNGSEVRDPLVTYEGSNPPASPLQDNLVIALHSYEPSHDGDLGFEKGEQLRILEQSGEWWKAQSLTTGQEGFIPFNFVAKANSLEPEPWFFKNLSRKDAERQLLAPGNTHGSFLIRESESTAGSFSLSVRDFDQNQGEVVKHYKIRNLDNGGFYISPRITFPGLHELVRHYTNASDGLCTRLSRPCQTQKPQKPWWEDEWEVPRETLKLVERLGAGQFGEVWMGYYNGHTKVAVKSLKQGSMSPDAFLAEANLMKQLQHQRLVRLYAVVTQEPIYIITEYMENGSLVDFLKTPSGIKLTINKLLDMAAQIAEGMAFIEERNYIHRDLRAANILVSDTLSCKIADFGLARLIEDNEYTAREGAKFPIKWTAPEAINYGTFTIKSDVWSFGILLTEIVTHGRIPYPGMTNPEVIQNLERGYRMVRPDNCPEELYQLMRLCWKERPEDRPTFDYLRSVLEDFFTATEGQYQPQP

SMILES	IC50 [1]	IC50 [2]	IC50 [3]	IC50 [4]	IC50 [5]	IC50 [6]	IC50 [7]	IC50 [8]	IC50 [9]	IC50 [10]
c1ccc(Cn2ncc3cc(Nc4ncnc(Nc5ncccn5)n4)ccc32)cc1 [Compound 738]	> 11.4 µM	> 11.4 µM	1.01 to 6.07 µM	> 11.4 µM	> 11.4 µM	> 11.4 µM	1.01 to 6.07 µM	1.01 to 6.07 µM	6.07 to 8.85 µM	> 11.4 µM
COCCCNc1ncnc(N2CCCc3cc(C)ccc32)n1 [Compound 762]	> 14.4 µM	> 14.4 µM	11.2 to 14.4 µM	> 14.4 µM	> 14.4 µM	> 14.4 µM	> 14.4 µM	> 14.4 µM	> 14.4 µM	> 14.4 µM
COc1cc(Nc2ncnc(-c3cccnc3N)n2)cc(OC)c1OC [Compound 1091]	< 1.13 µM	1.13 to 6.77 µM	> 12.7 µM	9.88 to 12.7 µM	< 1.13 µM	> 12.7 µM	9.88 to 12.7 µM	> 12.7 µM	1.13 to 6.77 µM	6.77 to 9.88 µM
CN(c1cccc(Cl)c1)c1ncnc(Nc2ccc3[nH]ccc3c2)n1 [Compound 714]	1.14 to 6.84 µM	1.14 to 6.84 µM	< 1.14 µM	1.14 to 6.84 µM	1.14 to 6.84 µM	> 12.8 µM	> 12.8 µM	1.14 to 6.84 µM	< 1.14 µM	> 12.8 µM
COc1cc(Nc2ncnc(Nc3cccc(CN4CCN(C)CC4)c3)n2)cc(OC)c1OC [Compound 1047]	> 9.67 µM	> 9.67 µM	> 9.67 µM	> 9.67 µM	> 9.67 µM	> 9.67 µM	> 9.67 µM	> 9.67 µM	> 9.67 µM	> 9.67 µM
COc1cc(Nc2ncnc(-n3c(Nc4cccc5cccnc45)nc4ccccc43)n2)cc(OC)c1OC [Compound 588]	0.768 to 4.61 µM	> 8.64 µM	> 8.64 µM	> 8.64 µM	4.61 to 6.72 µM	> 8.64 µM	> 8.64 µM	6.72 to 8.64 µM	0.768 to 4.61 µM	> 8.64 µM
COc1ccc([C@H](C)Nc2nc3ccccc3n2-c2ncnc(Nc3cc(OC)c(OC)c(OC)c3)n2)cc1 [Compound 1046]	> 8.53 µM	> 8.53 µM	> 8.53 µM	> 8.53 µM	< 0.758 µM	> 8.53 µM	> 8.53 µM	> 8.53 µM	> 8.53 µM	> 8.53 µM
CN(c1cccc(Cl)c1)c1ncnc(Nc2ccc(F)c(C(F)(F)F)c2)n1 [Compound 742]	> 11.3 µM	> 11.3 µM	1.01 to 6.03 µM	> 11.3 µM	> 11.3 µM	> 11.3 µM	> 11.3 µM	> 11.3 µM	> 11.3 µM	> 11.3 µM
CN(c1cccc(Cl)c1)c1ncnc(Nc2cccc(CC(=O)O)c2)n1 [Compound 706]	6.49 to 9.46 µM	> 12.2 µM	< 1.08 µM	1.08 to 6.49 µM	< 1.08 µM	> 12.2 µM	> 12.2 µM	> 12.2 µM	< 1.08 µM	> 12.2 µM
Cc1ccc2c(c1)CCCN2c1ncnc(NCc2ccccn2)n1 [Compound 769]	> 13.5 µM	> 13.5 µM	> 13.5 µM	> 13.5 µM	> 13.5 µM	> 13.5 µM	> 13.5 µM	> 13.5 µM	> 13.5 µM	> 13.5 µM
COC(=O)c1ccc(-c2cc(Nc3ncnc(Nc4cccc(CC(N)=O)c4)n3)[nH]n2)cc1 [Compound 577]	0.9 to 5.4 µM	0.9 to 5.4 µM	7.87 to 10.1 µM	< 0.9 µM	0.9 to 5.4 µM	> 10.1 µM	0.9 to 5.4 µM	< 0.9 µM	7.87 to 10.1 µM	> 10.1 µM
O=C(O)Cc1cccc(Nc2ncnc(-n3c(NCc4ccccn4)nc4ccccc43)n2)c1 [Compound 533]	0.884 to 5.3 µM	> 9.95 µM	> 9.95 µM	> 9.95 µM	< 0.884 µM	> 9.95 µM	> 9.95 µM	> 9.95 µM	> 9.95 µM	> 9.95 µM
